One block for each molecule: values may come before it. Calls of active or inactive are those of the source. The rule behind the calls is not given here.
Assays:
[1] = system: A549; assay: Cytotoxicity against human A549 cells up to 50 uM by SRB assay; assay type: cell-based
[2] = system: HeLa; assay: Cytotoxicity against human HeLa cells up to 50 uM by SRB assay; assay type: cell-based
[3] = system: SMMC-7721; assay: Cytotoxicity against human SMMC7721 cells up to 50 uM by SRB assay; assay type: cell-based
[4] = system: Laribacter hongkongensis; assay: Antibacterial activity against Laribacter hongkongensis by disc diffusion assay; assay type: functional
[5] = system: Micrococcus luteus; assay: Antibacterial activity against Micrococcus luteus by disc diffusion assay; assay type: functional, organism-based
[6] = system: uncultured Ruegeria sp.; assay: Antibacterial activity against Ruegeria sp. by disc diffusion assay; assay type: functional
[7] = system: Amphibalanus amphitrite; assay: Antifouling activity against Balanus amphitrite by settlement inhibition assay; assay type: functional, organism-based
[8] = Antifouling activity against Bugula neritina by settlement inhibition assay; assay type: functional
[9] = system: HepG2; assay: Lipid lowering activity in human HepG2 cells assessed as decrease in oleic acid elicited lipid accumulation after 6 hrs by oil-red O staining method; assay type: functional, cell-based; settings: HepG2, 6 h

SMILES: C[C@@H](O)CCCCC[C@H](O)[C@@H]1C=CC(=O)O1
- Activity [1]: Non-toxic
- Activity [2]: Non-toxic
- Activity [3]: Non-toxic
- Activity [4]: inactive
- Activity [5]: inactive
- Activity [6]: inactive
- Activity [7]: inactive
- Activity [8]: inactive

SMILES: C[C@@H](O)CCCCCC[C@H]1OC(=O)C[C@@H]1O
- Activity [1]: Non-toxic
- Activity [2]: Non-toxic
- Activity [3]: Non-toxic

- IC50 [9]: 8.3 µM
SMILES: CC[C@H](C)C(=O)O[C@H]1C[C@@H](C)C=C2C=C[C@H](C)[C@H](CC[C@@H]3C[C@@H](O)CC(=O)O3)[C@H]21 [LOVASTATIN]

— ChEMBL document CHEMBL3603796, “Lipid-lowering polyketides from a soft coral-derived fungus Cladosporium sp. TZP29” (Bioorg Med Chem Lett, 2015)
